Here are results for four compounds from BindingDB's records for doi:10.1016/j.bmcl.2004.02.106 (Merck Research Laboratories, 2004).

SMILES strings stand for the structures. Several values for one entry are separate records, joined by “and”; a condition that tells them apart may be missing. Equal entries are not always repeated.

This test deals with Sphingosine 1-phosphate receptor 5 (Homo sapiens) (UniProt Q9H228). Description: Inhibition of [33P]-S1P binding to human Sphingosine 1-phosphate receptor 5 expressed on CHO cell membranes.
Chain of Sphingosine 1-phosphate receptor 5 (Homo sapiens) (Q9H228 whole entry, looked up): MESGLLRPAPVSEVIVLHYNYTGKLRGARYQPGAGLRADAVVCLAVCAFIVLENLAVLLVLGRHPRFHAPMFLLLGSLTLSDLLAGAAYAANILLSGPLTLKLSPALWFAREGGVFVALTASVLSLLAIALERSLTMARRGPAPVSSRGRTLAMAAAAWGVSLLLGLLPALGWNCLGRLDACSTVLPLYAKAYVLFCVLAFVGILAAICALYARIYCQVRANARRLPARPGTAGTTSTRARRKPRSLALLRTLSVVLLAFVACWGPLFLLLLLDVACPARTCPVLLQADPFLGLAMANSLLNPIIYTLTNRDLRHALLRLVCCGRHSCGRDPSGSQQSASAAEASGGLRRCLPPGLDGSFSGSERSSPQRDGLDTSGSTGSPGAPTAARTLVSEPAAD

One may read the IC50 as the point on the concentration scale where inhibition reaches its midpoint. A high value points to weaker potency in that assay. As to `CCCCCCCCc1ccc(CC[C@H](N)CC(=O)[PH](O)(O)O)cc1`, the IC50 is 27 nM and 73 nM.

Turning to `CCCCCCCCc1ccc(CC[C@@H](N)CC(=O)[PH](O)(O)O)cc1`, the IC50 was 4.5 nM and 33 nM.

`CCCCCCCCc1ccc(CCC(N)C(=O)C[PH](O)(O)O)cc1` (centres undefined): the IC50 was 240 nM and 76 nM.

The compound `CCCCCCCCc1ccc(CCC(N)CCC(=O)O)cc1` (centres undefined) [4-Amino-6-(4-octyl-phenyl)-hexanoic acid] returned an IC50 of 1000 nM.
